From PubChem BioAssay (NCI)
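These data come from cells grown in 96-well plates and exposed to compound for 48 hours at five concentrations. GI50 is the concentration that inhibits growth by half. TGI is the concentration that stops growth completely.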

Experiments:
Assay in all cases: NCI-60 cell line screen, 48 h
[1] = tested on: SNB-75 CNS
[2] = tested on: A549 NSCLC
[3] = tested on: MALME-3M melanoma
[4] = tested on: HCC-2998 colon
[5] = tested on: OVCAR-3 ovarian
[6] = tested on: MDA-N
[7] = tested on: OVCAR-8 ovarian
[8] = tested on: SF-539 CNS
[9] = tested on: BT-549 breast
[10] = tested on: IGROV1 ovarian

Row | SMILES | TGI [1] | TGI [2] | TGI [3] | TGI [4] | TGI [5] | TGI [6] | TGI [7] | TGI [8] | TGI [9] | TGI [10] | GI50 [1] | GI50 [4] | GI50 [10] | GI50 [5] | GI50 [8]
1 | O=C(c1ccc(Cl)cc1Cl)N(Cc1cccnc1)C(=S)N(Cc1cccnc1)C(=O)c1ccc(Cl)cc1Cl | 14 µM | 38 µM | 36.9 µM | 8.97 µM | 10.1 µM | 6.76 µM | 13.5 µM | 4.43 µM | 14.8 µM | – | – | – | – | – | –
2 | CCOC(=O)c1ncoc1[C@H]1COC(C)(C)O1 | > 100 µM | > 100 µM | > 100 µM | > 100 µM | > 100 µM | – | > 100 µM | > 100 µM | – | > 100 µM | – | – | – | – | –
3 | O=C1C=C(N2CCCC2)C=C(N2CCCC2)C1 | > 100 µM | > 100 µM | > 100 µM | > 100 µM | > 100 µM | – | > 100 µM | – | – | > 100 µM | – | – | – | – | –
4 | CCN(CC)CCNC(=O)c1ccc([N+](=O)[O-])cc1OC | > 100 µM | > 100 µM | > 100 µM | – | > 100 µM | – | > 100 µM | > 100 µM | – | > 100 µM | – | – | – | – | –
5 | O=S(=O)(c1cc(Cl)ccc1Cl)N1CCN(c2ccc(Cl)c(Cl)c2)CC1 | 33.1 µM | > 100 µM | > 100 µM | > 100 µM | 38.5 µM | – | 51.4 µM | 53.5 µM | > 100 µM | > 100 µM | – | – | – | – | –
6 | COC(=O)c1ccc2c(c1)CC1(C2)Cc2cc3c(c(C(=O)OC)c2C1)CCCC3 (configuration not stated) | > 100 µM | > 100 µM | > 100 µM | > 100 µM | > 100 µM | > 100 µM | > 100 µM | > 100 µM | – | > 100 µM | – | – | – | – | –
7 | COc1c(Cl)ccc(Cl)c1C(=O)NNC(=O)c1c(Cl)c(Cl)c(Cl)c(Cl)c1-c1nc2ccc(C(=O)c3ccccc3)cc2[nH]1 | > 100 µM | > 100 µM | > 100 µM | – | > 100 µM | > 100 µM | > 100 µM | > 100 µM | > 100 µM | > 100 µM | – | – | – | – | –
8 | CC1=C2C(=O)O[C@@H](c3ccoc3)[C@]2(C)CCC1=O | > 100 µM | > 100 µM | – | > 100 µM | > 100 µM | > 100 µM | > 100 µM | > 100 µM | > 100 µM | > 100 µM | – | – | – | – | –
9 | C[C@H](CCC1=NCCN1)[C@H]1CC[C@H]2[C@@H]3[C@H](O)C[C@@H]4C[C@H](O)CC[C@]4(C)[C@H]3CC[C@]12C | 22.4 µM | – | 29.2 µM | 28.5 µM | 26.6 µM | 32.7 µM | 29 µM | 25.5 µM | 24.7 µM | 23.9 µM | – | – | – | – | –
10 | CCOc1cc(/C=N\N(C)C)cc(/C=N\N(C)C)c1O | 77.7 µM | > 100 µM | > 100 µM | > 100 µM | > 100 µM | > 100 µM | 56.2 µM | 65.4 µM | – | – | – | – | – | – | –
11 | CC(=O)Oc1ccccc1[C@H]1CC(=O)C[C@H](c2ccccc2OC(C)=O)C12C(=O)c1ccccc1C2=O | > 100 µM | – | > 100 µM | 85.4 µM | 89.2 µM | 47.3 µM | > 100 µM | – | 84.5 µM | > 100 µM | – | – | – | – | –
12 | CN(C)CCN1C(=O)CC[C@@]2(C)C1=CC[C@@H]1[C@@H]2CC[C@@]2(C)[C@H]1CC[C@]2(C)O | > 100 µM | > 100 µM | > 100 µM | – | > 100 µM | > 100 µM | > 100 µM | > 100 µM | > 100 µM | > 100 µM | – | – | – | – | –
13 | O=c1[nH]c2cc(C(F)(F)F)ccc2nc1Cc1ccccc1 | > 100 µM | – | – | > 100 µM | – | – | > 100 µM | > 100 µM | > 100 µM | > 100 µM | – | – | – | – | –
14 | O=C1Nc2cccc3ncn(c23)C2=C1CCCC2 | – | > 100 µM | > 100 µM | > 100 µM | – | – | > 100 µM | > 100 µM | – | > 100 µM | – | – | – | – | –
15 | Cc1c(C(=O)CSc2nc3ccc([N+](=O)[O-])cc3[nH]2)c(=O)n(-c2ccccc2)n1C | > 100 µM | > 100 µM | > 100 µM | > 100 µM | > 100 µM | – | > 100 µM | > 100 µM | – | > 100 µM | – | – | – | – | –
16 | COc1cc([C@@H]2c3cc4c(cc3[C@H](OC3OC5COC(C(C)C)OC5C(O)C3O)C3COC(=O)[C@@H]32)OCO4)cc(OC)c1O (some centres not stated) | – | 21.8 µM | 36 µM | – | 24.4 µM | 6.48 µM | 25.9 µM | 8.18 µM | 15.9 µM | 21.8 µM | – | – | – | – | –
17 | CC12CC3CC/C(=N\O)C(C1)C3(N1CCOCC1)C/C2=N/O (configuration not stated) | 94.8 µM | > 100 µM | > 100 µM | > 100 µM | > 100 µM | > 100 µM | > 100 µM | > 100 µM | – | > 100 µM | – | – | – | – | –
18 | CC(C)C1CC=NN1C(=O)OC(C)(C)C (configuration not stated) | > 100 µM | > 100 µM | – | > 100 µM | > 100 µM | > 100 µM | > 100 µM | > 100 µM | – | > 100 µM | – | – | – | – | –
19 | CC[C@@H]1CN2CCC1C[C@@H]2C(O)c1ccnc2ccc(OCCN3CCN(CCOc4ccc5nccc(C(O)[C@@H]6C[C@@H]7CCN6C[C@@H]7CC)c5c4)CC3)cc12 (some centres not stated) | – | 29.8 µM | 54.1 µM | 26.2 µM | 36 µM | 27.1 µM | 42.6 µM | 36.7 µM | 40.9 µM | 36.7 µM | – | – | – | – | –
20 | O=C1CC2CC=C[C@H]3c4cc5c(cc4C(=O)N1C23)OCO5 (some centres not stated) | > 50 µM | > 50 µM | > 50 µM | > 50 µM | > 50 µM | – | > 50 µM | > 50 µM | – | > 50 µM | – | – | – | – | –
21 | COc1cc(C2CC(c3cccc(Nc4ccncc4)c3)=NN2c2cc(Cl)cc(Cl)c2)cc(OC)c1OC (configuration not stated) | 3.06 µM | – | – | 2.98 µM | 3.21 µM | – | – | 3.2 µM | – | 3.25 µM | 1.31 µM | 1.56 µM | 1.69 µM | 1.73 µM | 1.72 µM
22 | Cc1cc2nc(N3C(=O)/C(=C/c4cccc([N+](=O)[O-])c4)N=C3c3ccccc3)sc2cc1C | 33.2 µM | > 100 µM | – | 53.7 µM | > 100 µM | 34.1 µM | 80.2 µM | > 100 µM | > 100 µM | > 100 µM | – | – | – | – | –
23 | COc1ncnc2c1cnn2Cc1cn(COCC(O)CO)nn1 (configuration not stated) | – | > 100 µM | – | > 100 µM | > 100 µM | > 100 µM | > 100 µM | > 100 µM | > 100 µM | > 100 µM | – | – | – | – | –
24 | O=C(O)C(CS)NCc1c2ccccc2[n+]([O-])c2ccccc12 (configuration not stated) | > 100 µM | > 100 µM | > 100 µM | > 100 µM | > 100 µM | – | > 100 µM | – | – | > 100 µM | – | – | – | – | –
